Data taken from patent US12083092B2, “Antiviral 1,3-di-oxo-indene compounds” (Novartis AG, priority 2020, dated 2024).

Columns and labels:
[1] = system: coxsackievirus B4 (Cox B4); assay: CPE inhibition assay, coxsackievirus B4; format: cell-based; details: Enterovirus B
poliovirus 1 (PV1) = assay: microbe, parasite or virus in culture; format: cell-based; details: Enterovirus C, read-out: PV1 (EC50 μM)
[2] = Cytotoxicity in mock-infected cells (MTT/MTS); format: cell-based; details: human, read-out: CYTOTOX (EC50 μM)
Procedure: In the assay, HeLa (human cervical cancer cells), MRC-5 (human fetal lung fibroblast cells), and RD cells (derived from human rhabdomyosarcoma) were employed. For comparison, ribavirin (Riv), Pleconaril (pleco), and BTA-798 (BTA) were used as controls. Reagents were dissolved at a concentration of 10-40 mg/ml in 100% dimethyl sulfoxide (DMSO). Water-soluble reagents were dissolved in PBS (−) solution and stored at −20° C. On the day of the experiment, they were used in 3 fold to 5 fold concentrations in such a manner that the concentration of dimethyl sulfoxide in each well was between 0.5% and 1%.
For HeLa cells, the drugs were measured for EC50 (50% maximal effective concentration), which is the concentration of a drug inducing a response halfway between the baseline and maximum, using an MTT assay. With regard to RD and MRC-5 cells, CPE was determined using FDA (Fluorescein diacetate) or MTT. In order to determine the effect of drug toxicity on efficacy results, at the time of inoculation with the virus, mock-infection was also included. A virus-free medium was added to a cell culture, which was then subjected to the same treatment as the virus-infected cells inoculated with the virus. That is, the medium was removed after one hour of incubation, and dilutions of drugs in the medium were added once more. Following incubation for 2-3 days, the cells were observed under a microscope and the drugs were determined for CC50 (50% cytotoxic concentration) at which 50% of the cells were killed, using an MTT assay in which counts of viable cells in mock-infected wells containing drugs were compared to those of viable cells in control wells containing no drugs. In an FDA hydrolysis assay, FDA was added to each well after removal of the medium, and incubated for 20-30 min before fluorescence intensity was measured using a spectrofluorometer to determine CPE in the same manner as in MTT.
That is, the survival rate (% survival) of mock-infected cells for cytotoxicity measurement was calculated using the Mathematical Formula 1 below: Cell Drug=Survival by [A (Drug)−A (Background solution)/A (Cell control)−(Background×100% Solution)]
While 100% cell survival means no cytotoxicity of the drug, the highest cytotoxicity is reflected by 0% cell survival. The 50% cytotoxic concentration was defined as the concentration required to reduce the cell number by 50%. This concentration of the drug is represented as CC50. Higher values mean lower cytotoxicity.
The % CPE value for measuring cytotoxicity of a drug was calculated by Mathematical Formula 4 below: % CPE=100×[OD (CC)−OD (Virus+Compound)/OD (CC)−OD (Blank)] In Mathematical Formulae 3 and 4 above, • OD (CC) represents the OD of the background cell culture that is neither induced by a virus nor treated by chemical, • OD (VC) represents the OD of the control cell culture that is induced by a virus but not treated by chemical, • OD (Virus+Compound) represents the OD of the cell culture infected by a virus that has been treated with a concentrated compound, • OD (Compound) represents the OD of the cell culture that has been treated with a concentrated compound only, and OD (Blank) represents the OD of the well to which only the cell culture has been added.
The effective concentration (EC50) represents the concentration of a drug at which 50% of cells are allowed to survive by CPE of an induced virus, and the cytotoxicity concentration (CC50) represents the concentration of a drug at which a compound has killed 50% of cells, and they were calculated by the logarithmic interpolation.

HRV A16 = assay: CPE inhibition assay, HRV A16; format: cell-based; details: Human rhinovirus sp., read-out: A16_CPE (EC50 μM)
HRV B14 = assay: CPE inhibition assay, HRV B14; format: cell-based; details: Human rhinovirus sp.
C15_C3 REP = details: human, C15 C3 REP (cell-based assay)
[3] = in vivo, cited from earlier work
[4] = in vivo; cited from earlier work
[5] = in vivo; cited from earlier work; remark: listed apart in the source
[6] = cited from earlier work
[7] = system: 48 rhinovirus types and coxsackievirus A21. B3, enterovirus 70 and echovirus 11; details: coxsackievirus A21, B3, enterovirus 70, echovirus 11; cited from earlier work

SMILES	EC50 [1] [µM]	EC50 (poliovirus 1 (PV1)) [µM]	CC50 [2] [µM]	EC50 (HRV A16) [µM]	EC50 (HRV B14) [µM]	CC50 (C15_C3 REP) [nM]	also measured
CC(=O)NC12C(=O)c3c(N)cccc3C1(O)Oc1ccc(C)cc12 (racemic) [Example 19, N-(1-amino-4b-hydroxy-8-methyl-10-oxo-4b,10-dihydro-9bH-indeno[1,2-b]benzofuran-9b-yl)acetamide]	0.00871	3.24	≥ 50	50	0.666	25000	
CC(=O)N(C)C12C(=O)c3c(N)cccc3C1(O)Oc1cc(C(F)(F)F)ccc12 (stereo not shown) [Example 21, N-(1-amino-4b-hydroxy-10-oxo-7-(trifluoromethyl)-4b,10-dihydro-9bH-indeno[1,2-b]benzofuran-9b-yl)-N-methylacetamide]	0.0032		≥ 50			25000	
CC(=O)N[C@]12C(=O)c3c(N)cccc3[C@@]1(O)Oc1cc(Cl)ccc12 (single isomer, unassigned) [Example 14]	0.00182		≥ 50				
CC(=O)N[C@@]12C(=O)c3c(N)cccc3[C@]1(O)Oc1cc(C(F)(F)F)ccc12 (single isomer, unassigned) [Example 5]	0.0442	9.22	≥ 50			25000	
CC(=O)N[C@]12C(=O)c3c(N)cccc3[C@@]1(O)Oc1ccc(C)cc12 (single isomer, unassigned) [Example 20]	0.00443	2.17	≥ 50				
COc1ccc2c(c1)O[C@]1(O)c3cccc(N)c3C(=O)[C@]21NC(C)=O (single isomer, unassigned) [Example 23]	0.00293		≥ 50				
CC(=O)N[C@@]12C(=O)c3c(N)cccc3[C@]1(O)Oc1cc(C3CC3)ccc12 (single isomer, unassigned) [Example 9]	0.0862		≥ 50	50	3.21	50000	
Cc1cc(CCCCCCCOc2ccc(C3=NCCO3)cc2)on1 [disoxaril]							bioavailability [3]: low bioavailability; metabolization and excretion [4]: rapid metabolization and excretion
CC(=O)NC12C(=O)c3c(N)cccc3C1(O)Oc1cc(C3CC3)ccc12 (racemic) [Example 7, N-(1-amino-7-cyclopropyl-4b-hydroxy-10-oxo-4b,10-dihydro-9bH-indeno[1,2-b]benzofuran-9b-yl)acetamide]	0.00168		≥ 50	14.7	0.016	50000	
CC(=O)N[C@@]12C(=O)c3c(N)cccc3[C@]1(O)Oc1cc(C)ccc12 (single isomer, unassigned) [Example 18]	0.383		≥ 50			25000	
CC(=O)N[C@]12C(=O)c3c(N)cccc3[C@@]1(O)Oc1cc(C(C)C)ccc12 (single isomer, unassigned) [Example 1]	0.00061	0.015	≥ 50	1.89	0.016	35100	
Cc1cc(CCCCCOc2c(Cl)cc(C3=NCCO3)cc2Cl)on1 [WIN 54954]							metabolization and excretion [4]: rapid metabolization and excretion; side effects [5]: skin rash
CC(C)S(=O)(=O)n1c(N)nc2ccc(/C(=N/O)c3ccccc3)cc21 [Enviroxime]							therapeutic effects in clinical studies ([6]; clinical studies): insignificant or few therapeutic effects; pharmacokinetics in clinical studies ([6]; in vivo): bad pharmacokinetics; side effects in clinical studies ([6]; in vivo): unwanted side effects
CC(=O)N[C@@]12C(=O)c3c(N)cccc3[C@]1(O)Oc1cc(OC(F)(F)F)ccc12 (single isomer, unassigned) [Example 12]	0.188	0.015	≥ 50	1.89	0.016		
CC(=O)NC12C(=O)c3c(N)cccc3C1(O)Oc1cc(Cl)ccc12 (racemic) [Example 13, N-(1-amino-7-chloro-4b-hydroxy-10-oxo-4b,10-dihydro-9bH-indeno[1,2-b]benzofuran-9b-yl)acetamide]	0.00267	0.295	≥ 50				
CC(=O)N[C@]12C(=O)c3c(N)cccc3[C@@]1(O)Oc1cc(C)ccc12 (single isomer, unassigned) [Example 17]	0.00174	0.11	≥ 50				
CC(=O)N[C@]12C(=O)c3c(N)cccc3[C@@]1(O)Oc1cc(OC(F)(F)F)ccc12 (single isomer, unassigned) [Example 11]	0.0011		≥ 50				
CC(=O)N[C@@]12C(=O)c3c(N)cccc3[C@]1(O)Oc1cc(Cl)ccc12 (single isomer, unassigned) [Example 15]	0.29		≥ 50			25000	
CC(=O)N[C@]12C(=O)c3c(N)cccc3[C@@]1(O)Oc1cc(C(F)(F)F)ccc12 (single isomer, unassigned) [Example 4]	0.00059	0.041	≥ 50				
CC(=O)NC12C(=O)c3c(N)cccc3C1(O)Oc1cc(OC(F)(F)F)ccc12 (racemic) [Example 10, N-(1-amino-4b-hydroxy-10-oxo-7-(trifluoromethoxy)-4b,10-dihydro-9bH-indeno[1,2-b]benzofuran-9b-yl)acetamide]	0.00303	0.335	≥ 50	39.8	0.056	50000	
CC(=O)N[C@]12C(=O)c3c(N)cccc3[C@@]1(O)Oc1cc(C3CC3)ccc12 (single isomer, unassigned) [Example 8]	0.00093	0.028	≥ 50	7.85	0.025	50000	
CC(=O)NC12C(=O)c3c(N)cccc3C1(O)Oc1cc(C)ccc12 (racemic) [Example 16, N-(1-amino-4b-hydroxy-7-methyl-10-oxo-4b,10-dihydro-9bH-indeno[1,2-b]benzofuran-9b-yl)acetamide]	0.00374		≥ 50	50	0.076		
CCC(=O)C(CCCCCCOc1ccc(OC)cc1Cl)C(=O)CC [arildone]							bioavailability [3]: low bioavailability
Cc1cc(CCCOc2c(C)cc(-c3noc(C(F)(F)F)n3)cc2C)on1 [Pleconaril]							oral bioavailability ([3]; po): very good oral bioavailability
CCOC(=O)/C=C/[C@H](C[C@@H]1CCNC1=O)NC(=O)[C@@H](CC(=O)[C@@H](NC(=O)c1cc(C)on1)C(C)C)Cc1ccc(F)cc1 [AG 7088]							effect in the cell culture [7]: nanomolar concentration range
CC(=O)NC12C(=O)c3c(N)cccc3C1(O)Oc1cc(C(F)(F)F)ccc12 (racemic) [Example 3, N-(1-amino-4b-hydroxy-10-oxo-7-(trifluoromethyl)-4b,10-dihydro-9bH-indeno[1,2-b]benzofuran-9b-yl)acetamide]	0.00201		≥ 50	50	0.019	21400	
CC(=O)N[C@]12C(=O)c3c(N)cccc3[C@@]1(O)Oc1cc(Br)ccc12 [Example 6, N-((4bR,9bR)-1-amino-7-bromo-4b-hydroxy-10-oxo-4b,10-dihydro-9bH-indeno[1,2-b]benzofuran-9b-yl)acetamide]	0.00098		≥ 50	43.3	0.049	50000	
